Test results published in patent US20150250824A1, “METHODS AND COMPOSITIONS FOR EXPANSION OF STEM CELLS AND OTHER CELLS” (The Research Foundation For The State University Of New York, priority 2014, published 2015).
Entries after “also recorded” stand apart in the source; their conditions may differ. Structures can show the parent of a compound that is named as a salt. Where two headings read alike, the source gives them in different places.

Tests used:
[1] = test system: CD34+ cells isolated from peripheral blood of G-CSF-mobilized donors; experiment: Ex vivo culture of mobilized peripheral blood CD34+ cells with compounds, CD34/CD38 flow cytometry; assay type: cell-based, human; details: 11 days, minimal cytokines; for effect on CD34+CD38+ and CD34+CD38− populations: C, 6, F at 10 μM, Z at 100 nM
Method: CD34+ cells were isolated from cord blood or from peripheral blood of G-CSF-mobilized adult donors and cultured as follows. Mononuclear cells (MNCs) were isolated using a simple red blood cell lysis (15 minutes at room temperature using BD PharmLyse) or using Ficoll-Paque density gradient centrifugation (Jaatinen and Laine, Current Protocols Stem Cell Biol. 1:2A.1.1-2A.1.4. (2007)). The cells were then incubated with MACS CD34+ Microbead kit (Miltenyi Biotec, Auburn, Calif.) and run through a magnetic column resulting in selection for CD34+ cells. […] Human cortex neural stem cell (hcx NSC) cells were purchased from Millipore.
(§1) CD34+ cells were cultured in […] medium ([…] Technologies, Vancouver, BC, Canada) supplemented with 10% FBS, 100 ng/ml hSCF (human stem cell factor), 100 ng/ml hTPO (human thrombopoietin), 100 ng/ml hFLT-3 ligand (Human Fms-related Tyrosine Kinase 3) (Peprotech, Rocky Hill, N.J., USA) and 100 U/ml penicillin/streptomycin (Gibco). Human cortex Neural Progenitor Cell line (hcx NSC) was maintained in ReNcell medium: ReNcell NSC Maintenance medium (Millipore) supplemented with 20 ng/ml human EGF, 20 ng/ml human bFGF (Peprotech) and 100 U/ml penicillin/streptomycin. For expansion of cells targeted for cell sorting, we used the same media containing a different cytokine cocktail of 100 ng/ml SCF, TPO and 10 ng/ml IL-3.
Cells were centrifuged for 5 minutes at 200 G at 4° C. Cells were resuspended with CD34, 38 and/or 41 conjugated antibodies for 30 minutes on ice. Cells were then washed with 2 ml of PBS and centrifuged for 5 minutes at 200 G at 4° C. The final pellet was resuspended using 300 μl of 2% formalin.
CD34+ cells isolated from peripheral blood of G-CSF-mobilized donors were cultured for 11 days with minimal cytokines and the 4 chemical cocktail (C6FZ). […] The population bearing CD34+/CD38− is associated with long-term repopulating HSCs.
CD34+ cells isolated from the peripheral blood of G-CSF-mobilized donors were next cultured for 11 days with minimal cytokines and the individual compounds, C, 6, F and Z (FIG. 13).

[2] = test system: hematopoietic stem/progenitor cells; experiment: Dose determination of BIX, Z and UNC on expansion of hematopoietic stem/progenitor cells; assay type: cell-based; details: at concentrations of 0.25×
Excerpt: The inventors have also determined the dose for BIX, Z and UNC on the expansion of hematopoietic stem/progenitor cells. […] UNC (UNC0638) and BIX are quite similar in their impact of expansion of hematopoietic stem/progenitor cells.

eiNSCs = experiment: In vitro expansion of episome-derived induced neural stem cells (eiNSCs); assay type: cell-based, human; details: added after the first passage in ReNcell medium
Method: For reprogramming of CD34+ cells to iNSCs by an OCT4 episomal vector, the CD34+ cells were transduced with an EBNV1-based pCEP4-OCT4 expression plasmid in which the CMV promoter is replaced by the SFFV promoter. Cells were transduced by electroporation using the Human CD34 Cell NUCLEOFECTOR® Kit (Lonza, Koln, Germany). Post-transduction, cells were incubated with hypoxia (5% 02), following the lentivirus reprogramming strategy described above. Dzep (3-deazaneplanocin, Sigma) was added to the solution after the first passage in ReNcell medium to maintain the cells for a longer period before senescence/quiescence.
While direct reprogramming using lentivirus does provide an increasingly popular approach that bypasses the iPS cell state, the issue of random integration of foreign DNA into the host's genome still remains. We attempted to generate iNSCs from CB by an integration-free method. CB CD34^+ were electroporated with an episomal vector containing a high expression OCT4 gene. […] In addition, eiNSCs are able to differentiate into neural and glial cells as neuron and astrocyte markers were observed after random differentiation. However, eiNSCs are slower in growth rate with a doubling time of approximately 36 hours where iNSCs have a doubling time of approximately 24 hours. […]

human CB CD34+ cells = experiment: Ex vivo expansion of cord blood CD34+ cells in HSC media with small molecules; assay type: cell-based; details: for retention/expansion of CD34+CD38− stem/progenitor cells compared to control: 5 days, HSC media with SCF, TPO, Flt-3 ligand 100 ng/ml each, Z 100 nM, Bix 1 μM, T 10 μM
Method: as §1
Cells were centrifuged for 5 minutes at 200 G at 4° C. Cells were resuspended with CD34, 38 and/or 41 conjugated antibodies for 30 minutes on ice. Cells were then washed with 2 ml of PBS and centrifuged for 5 minutes at 200 G at 4° C. The final pellet was resuspended using 300 μl of 2% formalin. […]
Recent studies in iPS cell reprogramming have discovered numerous small molecules modulating iPS cell reprogramming through different cellular mechanisms. These could include cellular signaling pathways (such as Wnt signaling and TGF beta) and epigenetic mechanisms, such as DNA methyltransferases, histone methylation and histone deacetylation. We have screened small molecule modulators involving these cellular mechanisms for hematopoietic stem/progenitor cell expansion. […] CB CD34+ cells were cultured for 5 days in HSC media containing SCF, TPO, and Flt-3 ligand at 100 ng/ml each. […] Bix (BIX01294), trihydrochloride hydrate is a histone methyltransferase (HMTase) G9a inhibitor (FIG. 15).
Previously we have shown that stem cell protein is a robust stimulator for hematopoietic stem/progenitor cell expansion via recruitment of various epigenetic factors such as histone deacylases and DNA methyltransferases (Yang et al, J Biol Chem. 2012, 13; 287(3): 1996-2005). […] Based on this finding, we screened the LSD1 inhibitors for the expansion of hematopoietic precursor cells. hUCB CD34+ cells were cultured for 5 days in HSC media containing SCF, TPO, and Flt-3 ligand at 100 ng/ml each.

[3] = test system: CD34+ cells isolated from human umbilical CB; assay type: cell-based; details: for number of large megakaryocytes / shortening of maturation compared to control: 4-5 day culture; for ploidy development compared to control or 616452 alone: 4 and 8 days induction; for CD41 population compared to control: 4 days of culture, flow analysis
Method: Megakaryocytes derived from CB in vitro are usually smaller than megakaryocytes derived from bone marrow or mobilized peripheral blood from adults. Small megakaryocyte size may contribute to delayed platelet engraftment when cord blood is used for bone marrow transplantation. To test whether 616452 is able to increase fetal/neonatal megakaryocyte size and ploidy, CD34+ cells isolated from human umbilical CB were cultured in StemSpan SFEM containing SCF, TPO and Flt-3 Ligand. CB CD34+ cells in the presence of TPO after 4 or 8 day culture, were morphologically consistent of a relative homogenous population of small cells (FIG. 19A) and megakaryocytic features such as large nuclear size and cytoplasmic mass were hardly detectable.
One of the unique characteristics of megakaryocytes is the ploidy development of their nuclei, which can be easily measured using propidium iodide (PI), a fluorescent intercalating agent that binds to nucleic acids. Megakaryocyte (Mk) ploidy correlates well with their maturation and platelet production. […] Out of 10,000 events, the control cells only elicited only 1 cell with a ploidy of 16N and nothing thereon greater (FIG. 20A).

## C=C[C@@]1(C)CC(=O)[C@]2(O)[C@@]3(C)[C@@H](O)CCC(C)(C)[C@@H]3[C@H](O)[C@H](OC(C)=O)[C@@]2(C)O1 [F, 7β-acetoxy-8,13-epoxy-1α,6β,9α-trihydroxylabd-14-en-11-one]
[1]
  effect on CD34+CD38+ and CD34+CD38− populations: induce a significant proportion of CD34+CD38+ population; also recorded: induce a significant proportion of CD34+CD38+ cells; also recorded: induced a significant expansion of CD34+CD38+

## COc1cc2c(NC3CCN(C(C)C)CC3)nc(C3CCCCC3)nc2cc1OCCCN1CCCC1 [UNC, 2-Cyclohexyl-6-methoxy-N-[1-(1-methylethyl)-4-piperidinyl]-7-[3-(1-pyrrolidinyl)propoxy]-4-quinazolinamine]
[2]
  toxicity: no significant toxicity

## Nc1nccc2c1ncn2[C@@H]1C=C(CO)[C@@H](O)[C@H]1O [Z, 5R-(4-amino-1H-imidazo[4,5-c]pyridin-1-yl)-3-(hydroxymethyl)-3-cyclopentene-1S,2R-diol]
eiNSCs
  additional passages of eiNSC growth: two
[2]
  toxicity: no significant toxicity
[1]
  effect on CD34+CD38+ and CD34+CD38− populations: best effect enhancing both CD34+CD38- and CD34+ and CD38+ positive cells; also recorded: ability to enhance both the population of single positive (CD34+CD38−) and double positive (CD34+CD38+) cells; also recorded: the most effects on the CD34+CD38− population
Human CB CD34+ cells
  retention/expansion of CD34+CD38− stem/progenitor cells compared to control: retained a large portion of CD34+CD38− stem/progenitor cells; also recorded: enhances retention and expansion of CD34+CD38-population; also recorded: promotes hematopoietic precursor immunophenotype and expands CD34+CD38− population

## NC(=O)c1ccc(-c2nc(-c3ccc4c(c3)OCO4)c(-c3ccccn3)[nH]2)cc1 [SB431542, 4-[4-(1,3-benzodioxol-5-yl)-5-(2-pyridinyl)-1H-imidazol-2-yl]benzamide]
[3]
  number of large megakaryocytes / shortening of maturation compared to control: little or no effect
  ploidy development compared to control or 616452 alone: no significant deviation in ploidy development
  CD41 population compared to control: marginal decrease in the CD41 population
[3]; listed as SB431452
  ploidy development compared to control or 616452 alone: no significant difference

## COc1cc2nc(N3CCCN(C)CC3)nc(NC3CCN(Cc4ccccc4)CC3)c2cc1OC [Bix, 2-(Hexahydro-4-methyl-1H-1,4-diazepin-1-yl)-6,7-dimethoxy-N-[1-(phenylmethyl)-4-piperidinyl]-4-quinazolinamine trihydrochloride hydrate]
[2]
  toxicity: no significant toxicity
Human CB CD34+ cells; trihydrochloride hydrate
  retention/expansion of CD34+CD38− stem/progenitor cells compared to control: retained a large portion of CD34+CD38− stem/progenitor cells; also recorded: enhances retention and expansion of CD34+CD38-population

## Cc1cccc(-c2nn(C(=S)Nc3ccccc3)cc2-c2ccnc3ccccc23)n1 [compound 616454, 3-(6-Methylpyridin-2-yl)-4-(4-quinolyl)-1-phenylthiocarbamoyl-1H-pyrazole]
[3]
  number of large megakaryocytes / shortening of maturation compared to control: little or no effect
  CD41 population compared to control: no any significant difference from control

## Cc1c[nH]c(-c2cnc(NCCNc3ccc(C#N)cn3)nc2-c2ccc(Cl)cc2Cl)n1 [CHIR99021, 6-[[2-[[4-(2,4-dichlorophenyl)-5-(5-methyl-1H-imidazol-2-yl)-2 pyrimidinyl]amino]ethyl]amino]-3-pyridinecarbonitrile]
[1]; listed as C
  effect on CD34+CD38+ and CD34+CD38− populations: does not have much of effect; also recorded: did not have much of effect
  proliferation and maturation of CD34+ cells compared to control: rapidly proliferates bone marrow CD34 cells leading to their maturation at a significantly rapid rate compared to control; also recorded: rapidly proliferated the bone marrow CD34+ cells, leading to their maturation at a significantly rapid rate compared to control

## Cl.N[C@H]1C[C@@H]1c1ccccc1 (racemic) [T, (±)-trans-2-Phenylcyclopropylamine hydrochloride]
Human CB CD34+ cells; 10 μM, 5 day culture
  fold increase in CD34+CD38− cells compared to the input: approximately 60 fold
  fold increase in total cell counts compared to the input: ~45 fold
Human CB CD34+ cells; hydrochloride
  retention/expansion of CD34+CD38− stem/progenitor cells compared to control: retained a significant fraction of CD34+CD38− cells and expanded this population; also recorded: promotes hematopoietic precursor immunophenotype and expands CD34+CD38− population
